ChEMBL document CHEMBL1157390, “Aplysinoplides A-C, cytotoxic sesterterpenes from the marine sponge Aplysinopsis digitata” (J Nat Prod, 2008)
In brackets after ≈: the same amount, converted by molar mass. Activity calls are given as the source filed them. No cut-off for these calls is given here.

How the values were obtained:
[1] = target: Phospholipase A2 (Bos taurus) (UniProt P00593); assay: Inhibition of bovine pancreas PLA2 at 100 uM by pH-stat assay
P388 = assay: Cytotoxicity against mouse P388 cells after 96 hrs by MTT assay; type: functional, cell-based; details: P388, 96 h

Phospholipase A2 (Bos taurus), sequence (P00593 whole entry): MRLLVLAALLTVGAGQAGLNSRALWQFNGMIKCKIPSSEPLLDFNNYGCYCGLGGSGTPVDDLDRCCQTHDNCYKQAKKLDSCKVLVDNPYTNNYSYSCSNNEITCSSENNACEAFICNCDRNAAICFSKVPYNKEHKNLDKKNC

Structure (SMILES) | Activity [1] | IC50 (P388)
CC1=C(CC/C(C)=C/CCC2=CC[C@H](C3=CC(=O)O[C@H]3O)O[C@H]2O)C(C)(C)CCC1 | Active | 
CC1=C(CC/C(C)=C/CC/C(=C\C=C\C2=CC(=O)OC2O)CO)C(C)(C)CCC1 (stereo unspecified) [APLYSINOPLIDE A] | inactive | 0.45 µg/mL (≈ 1.12 µM)
CC1=C(CC/C(C)=C/CC/C(=C\CC(O)C2=CC(=O)OC2O)CO)C(C)(C)CCC1 (stereo unspecified) [APLYSINOPLIDE B] | inactive | 0.45 µg/mL (≈ 1.08 µM)
C/C(=C\CC/C(=C/CC1OC(=O)C=C1CO)CO)CCC1C(C)(C)CCCC1(C)O (stereo unspecified) [APLYSINOPLIDE C] |  | 11 µg/mL (≈ 26.2 µM)
